pIC50: −log10 of the molar value. The source made the active and inactive calls. No cut-off for these calls is given here.
Assays:
[1] = (§1) Inhibition of photosynthesis in spinach chloroplast; format: functional, Spinacia oleracea
[2] = Lipophilicity, log K of the compound; format: physicochemical; settings: octanol/water
SK-N-MC = experiment: Antiproliferative activity against human SK-N-MC cells by MTT assay; format: functional, cell-based
Chlorella vulgaris = experiment: Inhibition of Chlorella vulgaris Beij assessed as reduction of chlorophyll content; format: functional, organism-based
Spinacia oleracea = experiment: as §1; format: functional

Structure (SMILES)	pIC50 [1]	log K [2]	pIC50 (SK-N-MC)	pIC50 (Chlorella vulgaris)	Activity (Chlorella vulgaris)	Activity (Spinacia oleracea)
Cc1ccc2c(N)cc(N)c(O)c2n1	3.85	0.2707	–	–	–	–
Cc1ccc2c(C(=O)O)cccc2n1	3.84	0.3629	< 5.20	–	–	–
Oc1cccc2ccc(/C=C/c3cccc(Cl)c3)nc12	3.84	1.5395	< 5.20	4.48	–	–
NC(=S)N/N=C/c1ncccc1N [TRIAPINE]	–	–	6.51	–	–	–
Oc1cccc(/N=C/c2ccc3cccc(O)c3n2)c1	–	0.886	–	3.77	–	–
Nc1cc(N)c2cccnc2c1O	3.73	0.0522	< 5.20	3.94	–	–
O=C(O)c1cccc2nc(/C=C/c3ccc(Cl)cc3)ccc12	3.31	1.3976	< 5.20	4.02	–	–
COc1ccccc1/C=C/c1ccc2cccc(C(=O)O)c2n1	–	1.1922	–	–	–	–
O=C(O)c1ccc(C(=O)O)c2nc(/C=C/c3cccc(Br)c3)ccc12	–	1.2171	–	–	–	–
O=C(O)c1ccc2ccc(/C=C/c3cccc(Cl)c3)nc2c1	–	1.2858	< 5.20	–	–	–
Oc1cccc2ccc(/C=C/c3ccc(Br)cc3)nc12	3.87	1.5802	< 5.20	–	–	–
Cc1ccc2c([N+](=O)[O-])cc([N+](=O)[O-])c(O)c2n1	4.59	0.7292	< 5.20	4.02	–	–
Oc1ccc(/N=C/c2ccc3cccc(O)c3n2)cc1	–	1.0911	–	4.77	–	–
O=C(O)c1ccc2nc(/C=C/c3ccccc3Cl)ccc2c1	3.67	1.4787	< 5.20	3.94	–	–
Oc1cccc2ccc(/C=C/c3ccc(Cl)cc3)nc12	3.35	1.5558	6.11	–	–	–
Cc1nc2ccccc2c(=O)[nH]1	–	0.1515	< 5.20	–	inactive	inactive
O=[N+]([O-])c1cc([N+](=O)[O-])c2cccnc2c1O	4.09	0.7154	< 5.20	–	–	–
CN(C)C(=O)Nc1ccc(Cl)c(Cl)c1 [DCMU]	5.72	–	–	–	–	–
Oc1ccccc1/N=C/c1ccc2cccc(O)c2n1	–	0.4308	< 5.20	4.96	–	–

Source: ChEMBL document CHEMBL1146320, “Investigating biological activity spectrum for novel quinoline analogues” (Bioorg Med Chem, 2007)
